{"source": "patent US11590110B2", "about": "“Compositions and methods for reactivating latent immunodeficiency virus using a GSK-3 inhibitor” (priority 2017, dated 2023)", "key": {"[1]": {"test_system": "latent HIV in CD4+ T cells from HIV-1-infected individuals on suppressive ART", "assay": "Example 1: reactivation of latent HIV, viral mRNA in culture supernatant by ddPCR", "conditions": "48 hours"}, "NF-κB (p65) [2]": {"test_system": "NF-κB (p65)", "assay": "Example 5: NF-κB p65 nuclear translocation, western blot of nuclear extracts", "format": "cell-based, human", "conditions": "1 μM tideglusib or anti-CD3/CD28 coated beads; CD4+ T cells of three HIV-negative participants", "description": "Nuclear extracts were prepared from purified CD4^+ T cells using the NE-PER Nuclear and Cytoplasmic Extraction reagent supplemented with protease inhibitor cocktail, as specified by the manufacturers protocol (Thermoscientific, catalogue no. 78833). Protein concentration of extracts was determined by Biorad protein assay (Biorad, catalogue no. 5000001). Nuclear extracts were resolved by electrophoresis on a 10% SDS-polyacrylamide gel using 15 μg of protein per condition and then transferred to PVDF membrane. Membranes were immunoblotted with primary antibodies for p65 (Cell signal Tech., catalogue no. 8242) and TATA binding protein (Abcam, catalogue no. ab63766); primary antibodies were diluted at 1:1000. Detection of primary antibodies was achieved by incubation with HRP conjugated secondary antibody. Bands were visualized by chemiluminescent detection using Immobilon Forte Western HRP ECL substrate (Millipore, catalogue no. WBLUF0100) followed by exposure to hyperfilm ECL (GE/Amersham, catalogue no. 45001508)."}, "[3]": {"test_system": "patient-derived CD4+ T cells", "assay": "Example 3: expression of activation markers CD69 and CD25 in patient-derived CD4+ T cells", "format": "cell-based, human", "conditions": "48 hours; anti-CD3/CD28 beads = 100%", "procedure": "Following treatment with Tideglusib, the CD4^+ T cells were spun down and stained with antibodies for the activation markers CD69 and CD25. Briefly, cells were harvested 48 hours after Tideglusib treatment, incubated with the antibodies for 15 minutes at room temperature, than washed and fixed with 1% PFA for 30 minutes; then washed again and analyzed via flow cytometer."}, "[4]": {"conditions": "cited from earlier work"}, "CD4+ T cells [5]": {"test_system": "CD4+ T cells", "assay": "Example 5: surface expression of activation markers CD69 and CD25, flow cytometry", "format": "cell-based, human", "conditions": "48 hours", "procedure": "(§1) Freshly isolated PBMCs or CD4^+ T cells were stained for viability, using the fixable viability dye Zombie violet (1:50, Biolegend) according to the manufacturer's recommendation. Surface staining was performed with the following antibodies at 1:100 dilutions: CD3-PE-Cy7, CD4-APC-Cy7, CD69-FITC, CD25-PE (all 1:100, Biolegend), and Glut-1-Ax647 (BD Bioscience, 566580) in staining buffer for 20 min on ice and cells were fixed in 1% PFA-containing PBS. All flow analysis was performed on the LSRII (BD Biosciences) using FlowJo software (v.10.4.2). Color compensations were performed using single-stained samples for each of the fluorochromes used. Data were analyzed using FlowJo software (TreeStar, San Carlos, Calif.)."}, "NF-κB (p65) [6]": {"test_system": "NF-κB (p65)", "assay": "Example 5: NF-κB (p65) binding with target DNA sequences, ELISA", "format": "cell-based, human", "conditions": "1 μM", "description": "To determine the specific NF-κB p65 DNA binding activity of treated CD4^+ T cells, an aliquot of the same nuclear extracts used for the p65/TBP western blots were submitted to the Transcription Factor Assay kit (Abcam, catalogue no. ab133112). Following the manufactures instructions sequentially, nuclear extracts were incubated in the TFA 96 well plate coated with double strand DNA NF-κB oligos. The wells were washed then incubated with primary anti-p65 antibody that is then detected by incubation with HRP conjugated secondary antibody. Developing reagents are added and absorbance is read at 450 nm. The level of absorbance indicates the DNA binding activity. For each donor experiment, binding specificity controls include a NF-κB competitor dsDNA control well and a non-specific binding control well. The assay was performed on 3 different donor samples."}, "CD4+ T cells [7]": {"test_system": "CD4+ T cells", "assay": "Example 5: lactate production analysis", "format": "cell-based, human", "conditions": "24 hours of treatment", "procedure": "Subsequently, media of the treated samples were tested for production of L-lactated using a Glycolysis Cell-Based Assay Kit (Cayman Chemical). This test measures the quantity of formazan, an artificial chromogenic dye that results from the reduction of tetrazolium salts in the presence of NADH in the culture media. Colored formazan absorbs between 490 and 520 nm and can be detected by a plate reader. Since lactate dehydrogenase catalyzes the reaction between NAD+ and lactate, yielding pyruvate and NADH, which directly reduces the tetrazolium salt, the quantity of formazan produced is proportional to the quantity of L-lactate in the culture medium, and is thus an indirect measurement of glycolysis. In order to determine specific L-Lactate concentration, a standard curve was obtained analyzing absorbance of known concentration of L-lactate as indicated in the manufacturer's protocol."}, "[8]": {"conditions": "also in the brain; cited from earlier work"}, "[9]": {"test_system": "primary CD4+ T cells isolated from fresh human tonsils", "assay": "CD69 transcripts in primary CD4+ T cells from fresh human tonsils", "format": "cell-based", "conditions": "2-day treatment"}, "[10]": {"test_system": "AKT/mTOR pathway in CD4+ T cells", "assay": "Example 5: RNA and protein expression profiling with nanoString", "format": "cell-based, human", "conditions": "1 μM", "procedure": "Quantitative RNA and protein expression data were generated using the nCounter Vantage 3D Solid Tumor Assay and the nCounter SPRINT profiler (NanoString Technologies), comprising 770 RNA and 30 protein targets including positive and negative controls. 1-3 million negatively selected primary CD4^+ T cells purified from HIV-positive donors on suppressive ART, as described above, were treated with 1 μM tideglusib or left untreated (DMSO control). […]. For RNA samples, an additional RNA purification step (Qiagen miRNeasy Mini Kit) was necessary to ensure an appropriate sample input for the nCounter assay. A total of at least 30 ng RNA was used for each sample. Otherwise, samples were processed according to the manufacturer's instructions. RNA and protein expression values were normalized and analyzed using the nSolver Analysis Software 4.0 and the add-on Advanced Analysis Software 2.0.115 (NanoString Technologies). Normalization genes for each sample were automatically selected by the software based on the geNorm algorithm (ref vandesompele). Biological replicates were then grouped according to treatment and the differential expression of each analyte-type (RNA or protein target) was determined in comparison to the untreated condition by considering inter-donor differences as confounding variables. Based on the differential expression of each gene, pre-defined gene sets by nanoString, representing different pathways included in this assay, were analyzed by calculating global significance scores for each gene set within each treatment, as follows: […]"}, "CD4+ T cells [11]": {"test_system": "CD4+ T cells", "assay": "Example 5: GLUT1 surface expression, flow cytometry", "format": "cell-based, human", "conditions": "2 or 24 hours; 1 μM tideglusib; CD4+ T cells of three HIV-negative donors", "procedure": "as §1\nChanges to the metabolism of resting CD4^+ T-cells by tideglusib were studied. […] […]."}, "CD4+ T cells [12]": {"test_system": "CD4+ T cells", "assay": "Example 5: basal and compensatory glycolysis, Seahorse glycolytic rate assay", "format": "cell-based, human", "conditions": "1 μM; 24 hours", "procedure": "ECAR was determined using the Seahorse SF Glycolytic Rate Assay Kit (Agilent, 103344-100) and a Seahorse XF96 Extracellular Flux Analyzer (Seahorse Bioscience). Resting (2×10^5 per well) were seeded onto Cell-Tak-coated wells (354240; Corning) in buffered Seahorse XF RPMI medium (Agilent, 103576-100) supplemented with 10 mM glucose, 2 mM L-glutamine, 1 mM pyruvate and 5 mM HEPES (pH 7.4). Measurements were obtained under basal conditions and after adding 0.5 μM rotenone/antimycin A (103015-100; Seahorse Bioscience), and 2-deoxy-d-glucose (2-DG) at a final well concentration of 50 mM (Agilent Technologies). Basal glycolysis and Proton Efflux Rate (PER) were calculated according to. Lactate measurements were detected using the Cayman L-Lactate Assay Kit (Cayman Chemical, 70010) In brief, 24 hours post treatment, supernatant from 200.000 primary resting and activated CD4^+ T cells was harvested and measured according to the manufacturer's recommendation."}}, "note": "“Also recorded” adds a separate entry of the source. Read-outs that look alike come from different tables or passages of the source.", "data": [{"smiles": "O=c1sn(-c2cccc3ccccc23)c(=O)n1Cc1ccccc1", "note": "[Tideglusib, 4-benzyl-2-(naphthalen-1-yl)-1,2,4-thiadiazolidine-3,5-dione]", "values": [{"measurement": "induction of viral mRNA in culture supernatant, highest single donor", "setting": "[1]; 1 μM, one donor", "value": "up to 60 fold"}, {"measurement": "average increase in viral mRNA released into the culture supernatant compared to untreated control", "setting": "[1]; 1 μM, vs DMSO-treated cells", "value": 30, "unit": "fold"}, {"measurement": "reactivation of latent HIV from CD4+ T cells upon ex vivo treatment", "setting": "[1]", "value": "high level of reactivation; also recorded: even greater than that demonstrated with SB-216763"}, {"measurement": "time of peak p65 nuclear translocation", "setting": "NF-κB (p65) [2]", "value": 60, "unit": "min"}, {"measurement": "activation markers CD69 and CD25 on the surface of CD4+ T cells", "setting": "[3]", "value": "not up-regulated"}, {"measurement": "side effects / tolerability in humans", "setting": "[4]", "value": "safe (i.e., non-toxic) and well tolerated in humans"}, {"measurement": "side effects / tolerability in humans", "setting": "[4]; listed as tideglusib", "value": "very low incidence of side-effects"}, {"measurement": "moderate, asymptomatic and fully reversible increase of transaminase, share of cases", "setting": "[4]; prolonged treatment", "value": 30, "unit": "%"}, {"measurement": "surface expression of the activation markers CD69 or CD25", "setting": "CD4+ T cells [5]", "value": "no increase"}, {"measurement": "p65/DNA binding", "setting": "NF-κB (p65) [6]", "value": "time-dependent increase"}, {"measurement": "L-lactate in the culture media", "setting": "CD4+ T cells [7]", "value": "did not result in an increase of L-lactate"}, {"measurement": "tissue-permeability", "setting": "[8]", "value": "high tissue-permeability also in the brain"}, {"measurement": "expression of CD69 transcripts", "setting": "[9]", "value": "reduces expression of CD69 transcripts"}, {"measurement": "activation of the AKT/mTOR pathway (phosphorylation of GSK-3β, AKT and TSC2)", "setting": "[10]; 15 minutes post-treatment", "value": "non-significant activation"}, {"measurement": "activating phosphorylation of p70S6K on T389", "setting": "[10]; 1 hour", "value": "significant phosphorylation values"}, {"measurement": "inhibiting phosphorylation of GSK-3β on S9", "setting": "[10]; 1 hour", "value": "significant phosphorylation values"}, {"measurement": "inhibiting phosphorylation of TSC2 on T1426", "setting": "[10]; 6 hours", "value": "statistically-relevant phosphorylation"}, {"measurement": "phosphorylation of AKT on S473", "setting": "[10]; 6 hours", "value": "statistically-relevant phosphorylation"}, {"measurement": "overall transcriptome changes, pathways (700 transcripts)", "setting": "[10]; after 1 and 6 hours", "value": "activation of the mitogen-activated protein kinase (MAPK), PI3K, Ras, Wnt and TGFβ pathways and deactivation of the Hedgehog, Notch and Janus kinases (JAK) and signal transducer and activator of transcription proteins (STAT)-pathways"}, {"measurement": "GLUT1 surface expression over the untreated control", "setting": "CD4+ T cells [11]", "value": "did not increase GLUT1 surface expression"}, {"measurement": "basal glycolysis, mean value", "setting": "CD4+ T cells [12]", "value": 17.43, "unit": "pmol/min"}, {"measurement": "compensatory glycolysis, response to Rot/AA", "setting": "CD4+ T cells [12]", "value": "did not result in an increase"}]}]}
